From PubChem BioAssay AID2060487 (Molecular Pharmacology Branch, DTP, NCI, 2025)
Each block holds one molecule with its values, some of them ahead of it.

Tested on: 997537-175-T-J1-PDC complex spheroid viability
Assay: Anticancer human tumor 997537-175-T-J1-PDC patient-derived colon adenocarcinoma cell line growth inhibition [GQUAD]
Conditions: for IC50: curve of first compound; for viability, T/C: stronger effect = lower value
Procedure, shortened: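 Multi-cell-type spheroids of tumor cells with HUVEC and mesenchymal stem cells, treated with drug combinations. Concentrations descend in half-log steps from near clinical Cmax, or from 10 microM where Cmax is unknown; viability read-out.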

[1] = second compound 0.0316 µM, first compound 0.000999 µM
[2] = second compound 0.0316 µM, first compound 0.00316 µM
[3] = second compound 0.0316 µM, first compound 0.00999 µM
[4] = second compound 0.0316 µM, first compound 0.0316 µM
[5] = second compound 0.0316 µM, first compound 0.0999 µM
[6] = second compound 0.0316 µM, first compound 0.316 µM
[7] = second compound 0.1 µM, first compound 0.000999 µM
[8] = second compound 0.1 µM, first compound 0.00316 µM
[9] = second compound 0.1 µM, first compound 0.00999 µM
[10] = second compound 0.1 µM, first compound 0.0316 µM
[11] = second compound 0.1 µM, first compound 0.0999 µM
[12] = second compound 0.1 µM, first compound 0.316 µM
[13] = second compound 0.316 µM, first compound 0.000999 µM
[14] = second compound 0.316 µM, first compound 0.00316 µM
[15] = second compound 0.316 µM, first compound 0.00999 µM
[16] = second compound 0.316 µM, first compound 0.0316 µM
[17] = second compound 0.316 µM, first compound 0.0999 µM
[18] = second compound 0.316 µM, first compound 0.316 µM
[19] = second compound 1 µM, first compound 0.000999 µM
[20] = second compound 1 µM, first compound 0.00316 µM
[21] = second compound 1 µM, first compound 0.00999 µM
[22] = second compound 1 µM, first compound 0.0316 µM
[23] = second compound 1 µM, first compound 0.0999 µM
[24] = second compound 1 µM, first compound 0.316 µM
[25] = second compound 3.16 µM, first compound 0.000999 µM
[26] = second compound 3.16 µM, first compound 0.00316 µM
[27] = second compound 3.16 µM, first compound 0.00999 µM
[28] = second compound 3.16 µM, first compound 0.0316 µM
[29] = second compound 3.16 µM, first compound 0.0999 µM
[30] = second compound 3.16 µM, first compound 0.316 µM
[31] = second compound 10 µM, first compound 0.000999 µM
[32] = second compound 10 µM, first compound 0.00316 µM
[33] = second compound 10 µM, first compound 0.00999 µM
[34] = second compound 10 µM, first compound 0.0316 µM
[35] = second compound 10 µM, first compound 0.0999 µM
[36] = second compound 10 µM, first compound 0.316 µM
[37] = second compound 0.0316 µM, first compound 0.1 µM
[38] = second compound 0.0316 µM, first compound 1 µM
[39] = second compound 0.0316 µM, first compound 3.16 µM
[40] = second compound 0.0316 µM, first compound 10 µM
[41] = second compound 0.1 µM, first compound 0.1 µM
[42] = second compound 0.1 µM, first compound 1 µM
[43] = second compound 0.1 µM, first compound 3.16 µM
[44] = second compound 0.1 µM, first compound 10 µM
[45] = second compound 0.316 µM, first compound 0.1 µM
[46] = second compound 0.316 µM, first compound 1 µM
[47] = second compound 0.316 µM, first compound 3.16 µM
[48] = second compound 0.316 µM, first compound 10 µM
[49] = second compound 1 µM, first compound 0.1 µM
[50] = second compound 1 µM, first compound 1 µM
[51] = second compound 1 µM, first compound 3.16 µM
[52] = second compound 1 µM, first compound 10 µM
[53] = second compound 3.16 µM, first compound 0.1 µM
[54] = second compound 3.16 µM, first compound 1 µM
[55] = second compound 3.16 µM, first compound 3.16 µM
[56] = second compound 3.16 µM, first compound 10 µM
[57] = second compound 10 µM, first compound 0.1 µM
[58] = second compound 10 µM, first compound 1 µM
[59] = second compound 10 µM, first compound 3.16 µM
[60] = second compound 10 µM, first compound 10 µM
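Further: spheroids exposed to the agents for 7 days.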
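Wherever viability, T/C is given: 100% = DMSO vehicle control viability.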

SMILES: CC[C@@]1(O)C(=O)OCc2c1cc1n(c2=O)Cc2cc3c(CN(C)C)c(O)ccc3nc2-1 + CN(C)c1ccc(Nc2c3ccc(NC(=O)CCN4CCCC4)cc3nc3cc(NC(=O)CCN4CCCC4)ccc23)cc1
IC50 (second compound 0.0316 µM): > 316 nM
IC50 (second compound 0.1 µM): > 316 nM
IC50 (second compound 0.316 µM): > 316 nM
IC50 (second compound 1 µM): > 316 nM
IC50 (second compound 3.16 µM): > 316 nM
IC50 (second compound 10 µM): > 316 nM
viability, T/C [1]: 90%
viability, T/C [2]: 84.8%
viability, T/C [3]: 86.4%
viability, T/C [4]: 61.1%
viability, T/C [5]: 82.5%
viability, T/C [6]: 64.2%
viability, T/C [7]: 99%
viability, T/C [8]: 103%
viability, T/C [9]: 92.3%
viability, T/C [10]: 86.2%
viability, T/C [11]: 76.8%
viability, T/C [12]: 63.3%
viability, T/C [13]: 82.3%
viability, T/C [14]: 81.9%
viability, T/C [15]: 87.3%
viability, T/C [16]: 97.8%
viability, T/C [17]: 91.5%
viability, T/C [18]: 69.3%
viability, T/C [19]: 79.3%
viability, T/C [20]: 91.1%
viability, T/C [21]: 108%
viability, T/C [22]: 90.6%
viability, T/C [23]: 96.9%
viability, T/C [24]: 68.9%
viability, T/C [25]: 63.8%
viability, T/C [26]: 79.7%
viability, T/C [27]: 90.4%
viability, T/C [28]: 86.4%
viability, T/C [29]: 95.2%
viability, T/C [30]: 65.9%
viability, T/C [31]: 86.3%
viability, T/C [32]: 88.6%
viability, T/C [33]: 98.7%
viability, T/C [34]: 103%
viability, T/C [35]: 99.6%
viability, T/C [36]: 73.3%

SMILES: CCc1c2c(nc3ccc(O)cc13)-c1cc3c(c(=O)n1C2)COC(=O)[C@]3(O)CC + Cc1[nH]c2ccc(F)cc2c1-c1nc2c3cccnc3c3ncccc3c2[nH]1
IC50 (second compound 0.0316 µM): 11.9 nM
IC50 (second compound 0.1 µM): 9.18 nM
IC50 (second compound 0.316 µM): 11.9 nM
IC50 (second compound 1 µM): 8.52 nM
IC50 (second compound 3.16 µM): 10.7 nM
IC50 (second compound 10 µM): 6.48 nM
viability, T/C [1]: 84.3%
viability, T/C [2]: 94.4%
viability, T/C [3]: 54.2%
viability, T/C [4]: 16.6%
viability, T/C [5]: 7.8%
viability, T/C [6]: 2.95%
viability, T/C [7]: 75%
viability, T/C [8]: 74.8%
viability, T/C [9]: 45.2%
viability, T/C [10]: 22%
viability, T/C [11]: 5.55%
viability, T/C [12]: 2.19%
viability, T/C [13]: 90.5%
viability, T/C [14]: 94.3%
viability, T/C [15]: 53.3%
viability, T/C [16]: 19.2%
viability, T/C [17]: 7.44%
viability, T/C [18]: 2.71%
viability, T/C [19]: 81.9%
viability, T/C [20]: 76.6%
viability, T/C [21]: 44.4%
viability, T/C [22]: 19.6%
viability, T/C [23]: 6.99%
viability, T/C [24]: 7.31%
viability, T/C [25]: 69%
viability, T/C [26]: 56.6%
viability, T/C [27]: 54%
viability, T/C [28]: 22.1%
viability, T/C [29]: 7.42%
viability, T/C [30]: 2.8%
viability, T/C [31]: 69.2%
viability, T/C [32]: 52.8%
viability, T/C [33]: 48%
viability, T/C [34]: 17.1%
viability, T/C [35]: 3.72%
viability, T/C [36]: 2.19%

SMILES: CC1COCCN1c1cc(C2(S(C)(=N)=O)CC2)nc(-c2ccnc3[nH]ccc23)n1 (stereo not drawn) + Cc1[nH]c2ccc(F)cc2c1-c1nc2c3cccnc3c3ncccc3c2[nH]1
IC50 (second compound 0.0316 µM): 9530 nM
IC50 (second compound 0.1 µM): 6250 nM
IC50 (second compound 0.316 µM): > 10000 nM
IC50 (second compound 1 µM): > 10000 nM
IC50 (second compound 3.16 µM): 6510 nM
IC50 (second compound 10 µM): > 10000 nM
viability, T/C [4]: 96.7%
viability, T/C [37]: 83.8%
viability, T/C [6]: 76.3%
viability, T/C [38]: 71.9%
viability, T/C [39]: 62.9%
viability, T/C [40]: 47.5%
viability, T/C [10]: 95.8%
viability, T/C [41]: 86.2%
viability, T/C [12]: 82.4%
viability, T/C [42]: 77.6%
viability, T/C [43]: 70.3%
viability, T/C [44]: 37.4%
viability, T/C [16]: 107%
viability, T/C [45]: 73.8%
viability, T/C [18]: 69.7%
viability, T/C [46]: 70%
viability, T/C [47]: 62.3%
viability, T/C [48]: 49.3%
viability, T/C [22]: 80.3%
viability, T/C [49]: 46.2%
viability, T/C [24]: 76.8%
viability, T/C [50]: 94%
viability, T/C [51]: 72.5%
viability, T/C [52]: 60.6%
viability, T/C [28]: 59.7%
viability, T/C [53]: 79.8%
viability, T/C [30]: 66.1%
viability, T/C [54]: 55.8%
viability, T/C [55]: 71%
viability, T/C [56]: 40.4%
viability, T/C [34]: 63.7%
viability, T/C [57]: 76.2%
viability, T/C [36]: 72.2%
viability, T/C [58]: 71.2%
viability, T/C [59]: 64.5%
viability, T/C [60]: 74.8%

IC50 (second compound 0.0316 µM): > 10000 nM
IC50 (second compound 0.1 µM): > 10000 nM
IC50 (second compound 0.316 µM): > 10000 nM
IC50 (second compound 1 µM): 9860 nM
IC50 (second compound 3.16 µM): > 10000 nM
IC50 (second compound 10 µM): > 10000 nM
SMILES: COc1ccc([C@@H](O)c2cc(-c3ncnc4cc(N5CCOCC5)ccc34)c(F)cc2Cl)nn1 + Cc1cnc(CNC(=O)c2c(=O)c3ccc(N4CCCN(C)CC4)nc3n3c2sc2ccccc23)cn1
viability, T/C [4]: 102%
viability, T/C [37]: 93.6%
viability, T/C [6]: 100%
viability, T/C [38]: 63.3%
viability, T/C [39]: 81.1%
viability, T/C [40]: 63.9%
viability, T/C [10]: 97.5%
viability, T/C [41]: 94.7%
viability, T/C [12]: 73.9%
viability, T/C [42]: 84.7%
viability, T/C [43]: 77.2%
viability, T/C [44]: 86.9%
viability, T/C [16]: 87.3%
viability, T/C [45]: 106%
viability, T/C [18]: 107%
viability, T/C [46]: 94.8%
viability, T/C [47]: 113%
viability, T/C [48]: 65.2%
viability, T/C [22]: 82.3%
viability, T/C [49]: 87.5%
viability, T/C [24]: 89.3%
viability, T/C [50]: 87.8%
viability, T/C [51]: 98.1%
viability, T/C [52]: 49.5%
viability, T/C [28]: 81.7%
viability, T/C [53]: 88.8%
viability, T/C [30]: 98.1%
viability, T/C [54]: 107%
viability, T/C [55]: 98.2%
viability, T/C [56]: 71.2%
viability, T/C [34]: 85.5%
viability, T/C [57]: 75.9%
viability, T/C [36]: 86.3%
viability, T/C [58]: 117%
viability, T/C [59]: 86.9%
viability, T/C [60]: 72.8%
